Consider one substance from patent US20080085264A1, “METHODS FOR ENHANCING STEM CELL ENGRAFTMENT DURING TRANSPLANTATION” (priority 2003, published 2008).

Assay [1] relates to C57BL/6 mice. The assay can be described thus: G-CSF induced mobilization of HSC/HPC in C57BL/6 mice (progenitor cell assays of peripheral blood). Type of assay: in vivo, mouse. To be noted: inhibitor 5 μmol/mouse 2×/day s.c. during G-CSF mobilization, C57BL/6. As to the method:
(§1) Mobilization was achieved by treating mice with 2.5 μg (micrograms) G-CSF/mouse 2×/day s.c. for 2 days (Broxmeyer H E, et al. J Exp Med. 1999; 189:1987-1992). Mice simultaneously treated with a specific CD26 inhibitor also underwent treatment with either 5 μmol Diprotin A/mouse 2×/day s.c. for 2 days or 5 μmol Val-Pyr/mouse 2×/day s.c. for 2 days. Diprotin A was obtained commercially (Peptides International, Louisville, Ky.) and Val-Pyr was obtained as a gift from Nicolai Wagtmann (Novo Nordisk, Denmark). After either G-CSF or G-CSF plus CD26 inhibitor treatment peripheral blood cells were collected and total cellular nuclearity was measured and progenitor cell assays were performed using total peripheral blood cells.
(§2) One-hundred thousand mouse G-CSF mobilized peripheral blood cells were plated in triplicate for colony formation by CFU-GM, BFU-E, and CFU-GEMM and scored at 7 days incubation as previously described (Cooper S, Broxmeyer H E. Measurement of interleukin-3 and other hematopoietic growth factors, such as GM-CSF, G-CSF, M-CSF, erkythropoietin and the potent co-stimulating cytokines steel factor and FLt-3 ligand. In: Coligan J E K A, Margulies D H, Shevach E M, Strober E, Coico R, ed. Current protocols in immunology. New York: John Wiley & Sons; 1996:6.4.1-6.4.12). Cells were plated for colony formation in 1% methylcellulose culture medium containing 30% FBS, 1 U/ml recombinant(r) human Epo, 0.1 mM Hemin, 5% Pokeweed Mitogen Spleen Conditioned Media (PWMSCM), and 50 ng/ml rmouse Steel Factor (=Stem Cell Factor, SCF).

A further assay has as its system DBA/2 mice. The assay can be described thus: G-CSF induced mobilization of HSC/HPC in DBA/2 mice (progenitor cell assays of peripheral blood). Type of assay: in vivo, mouse. To be noted: inhibitor treatment during G-CSF mobilization. The procedure: as §1, §2
A further assay concerns the target T1, CD26/DPPIV (Mus musculus, UniProt P28843).
T1 construct: endogenous in cells; host or cells: sorted mouse (C57BL/6) bone marrow cells
The assay is described as follows: CD26/DPPIV peptidase activity of C57BL/6 BM cells (Gly-Pro-pNA). The class given is cell-based. The procedure:
Proteolytic activity was determined by measurement of the amount of p-nitroanilide (pNA) formed in the supernatant at 405 nm. One thousand cells per well in the 96-well flat-bottomed plate were incubated at 37° C. with 4 mM Gly-Pro-pNA in 100 μL PBS buffer (pH 7.4) containing 10 mg/ml BSA. Absorbance was measured at 405 nm on a microplate spectrofluorometer (SpectraMax 190, Molecular Devices, Sunnyvale, Calif.) every two minutes and pmoles of pNA formed were calculated by comparison to a pNA standard curve. The results were plotted as pmoles pNA versus minutes and the slope was calculated at the linear portion of the curve giving a measure of DPPIV activity expressed as pmoles/min (U) per 1000 cells. Tests were run using three separate samples (n=3 for each sample); cell-free blanks, substrate-free blanks were run in parallel.

Another assay has as its system BoyJ irradiated mice. The assay is described as follows: Competitive repopulation assay. Type of assay: in vivo, mouse. As to conditions: six months post transplant, 5×10^5 or 2.5×10^5 donor cells vs 5×10^5 competitor BoyJ cells. The source says: Donor LDBM cells (5×10^5) from representative mice from each test group were transplanted into lethally irradiated BoyJ mice (expressing CD45.1) Quantitative contribution to chimerism was obtained 2-6 months post-transplantation in the same manner described for long-term engraftment assays.
Eight week old female recipient mice were lethally irradiated (1100 cGy split dose) prior to transplantation as previously described (Haneline L S, et al. Blood. 1999; 94:1-8). Limiting dilutions of donor LD BM cells (5×10^5, 2.5×10^5, 1.25×10^5, and 0.625×10^5 cells) from control C57Bl/6 mice, CD26-inhibitor treated LD BM cells, or untreated LD BM cells from CD26^−/− mice (all expressing CD45.2) are co-transplanted with a constant number (5×10^5) of pooled competitive BM cells from congenic BoyJ mice (expressing CD45.1), into BoyJ irradiated mice. To determine quantitatively the relative cell contribution to chimerism of each test cell population tail-vein blood samples were obtained post-transplantation each month for three months and CD45.1 and CD45.2 was measured by flow-cytometry. Cells were divided into CD26 inhibitor (either Diprotin A or Val-Pyr) treated or untreated groups obtained from normal C57BL/6 mice and untreated cells obtained from CD26^−/− mice. […]

Assay [2] concerns C57BL/6 mice. The assay can be described thus: G-CSF induced mobilization of HSC/HPC in C57BL/6 mice (progenitor cell assays of peripheral blood). Type of assay: in vivo. As to conditions: 5 μmol/mouse 2×/day s.c. alone, without G-CSF.

T1 sequence (P28843 whole entry): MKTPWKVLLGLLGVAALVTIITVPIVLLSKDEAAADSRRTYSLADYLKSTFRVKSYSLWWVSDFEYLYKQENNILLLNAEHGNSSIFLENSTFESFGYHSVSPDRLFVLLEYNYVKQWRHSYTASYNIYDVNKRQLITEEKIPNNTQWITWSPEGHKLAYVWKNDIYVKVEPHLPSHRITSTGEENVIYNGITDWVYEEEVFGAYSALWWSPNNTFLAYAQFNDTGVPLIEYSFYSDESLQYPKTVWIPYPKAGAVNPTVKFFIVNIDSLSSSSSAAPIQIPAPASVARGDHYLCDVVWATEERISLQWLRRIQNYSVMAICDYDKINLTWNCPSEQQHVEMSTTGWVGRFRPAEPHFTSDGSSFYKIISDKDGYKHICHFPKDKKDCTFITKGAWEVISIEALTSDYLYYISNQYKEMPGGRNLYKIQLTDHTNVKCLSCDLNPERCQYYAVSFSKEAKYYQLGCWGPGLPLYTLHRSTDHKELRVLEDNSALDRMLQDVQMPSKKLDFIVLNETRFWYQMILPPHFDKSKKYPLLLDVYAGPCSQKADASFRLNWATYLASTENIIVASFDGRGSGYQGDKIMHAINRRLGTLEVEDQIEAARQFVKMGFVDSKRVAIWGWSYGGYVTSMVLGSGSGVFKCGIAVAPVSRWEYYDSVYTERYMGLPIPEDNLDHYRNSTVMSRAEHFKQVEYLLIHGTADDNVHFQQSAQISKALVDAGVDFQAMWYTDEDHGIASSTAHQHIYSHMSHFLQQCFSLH

Regarding Ile-Pro-Ile [Diprotin A], in the assay with C57BL/6 mice [1], the “reduction in BFU-E compared to G-CSF alone” value was 29%, the “reduction in CFU-GEMM compared to G-CSF alone” value amounted to 63% and the “reduction in CFU-GM compared to G-CSF alone” value came out at 59%. Besides, in the assay on DBA/2 mice, the “reduction in BFU-E compared to G-CSF alone” value is recorded as 56%, the “reduction in CFU-GEMM compared to G-CSF alone” value was found to be 71% and the “reduction in CFU-GM compared to G-CSF alone” value is given as 62%. For the same substance, the “CD26 peptidase activity with inhibitor treatment” value on CD26/DPPIV (C57BL/6 BM cells, P<0.01) was “rapidly lost”. The “recovery of CD26 activity begins, time post treatment” value at CD26/DPPIV (cells washed 15 minutes post inhibitor treatment) is “within four hours”. Also, the “donor contribution to chimerism” value with BoyJ irradiated mice is reported as “increased donor contribution to chimerism”. Further, the “effect on the mobilization of progenitors, inhibitor alone” value in the assay with C57BL/6 mice [2] is on record as “little or no effect”.
